experiment: Human HepG2 cell viability assay in 384 well format; type: toxicity, cell-based; parameters: dose 125 nL, time 70.5 hour; cytotoxicity at 70.5 h: concentration not given beside the values; conditions: HepG2 cells, read-out: Inhibition

Compound | cytotoxicity at 70.5 h
COc1ccc(-n2cc(CNC(=O)c3ccccn3)nn2)cc1 | -8.76%
Fc1cnc(N2CCN(Cc3ccc(-c4cc[nH]n4)o3)CC2)nc1 | -3.42%
NC(=O)c1cc2c(nc1CCOc1ccc(F)cc1)CCC2 | -2.31%
CCC(CNC(=O)NC1CCN(C)CC1)Oc1ccccc1Cl (configuration not stated) | 30.5%
CCc1cccc(N2CCC(NC(=O)c3ccoc3C)CC2)c1 | 19.4%
CN(C)C(=O)[C@H]1C[C@@H]2CN(CCc3ccccc3)C[C@H]1O2 | -6.59%
c1cncc(-c2ccc3c(c2)CCC32CCN(Cc3nccs3)CC2)c1 | -2.27%
N#Cc1cccc(CN2CCN(C(=O)C3CCC3)[C@@H]3CS(=O)(=O)C[C@@H]32)c1 | -4.15%
O=C(NCCc1ccn(-c2ccc(F)cc2)n1)C1CCCO1 (configuration not stated) | -5.68%
CCCn1nc2c(cc1=O)CN(c1ncnc3sccc13)CC2 | -10.8%
COCCN(C)C[C@@H]1CN(C(=O)c2ccoc2)C[C@@H]1CO | -7.32%
Cc1noc(C)c1CN(C)C(=O)c1cnc(C2CC2)nc1O | 8.69%
COc1ccc(C2(C(=O)NCc3c(C)ncc4c3CCNC4)CC2)cc1 | -5.87%
CC(C)Cc1cc(C(=O)NCCN2CCCS2(=O)=O)[nH]n1 | -10.6%
COc1ccc(OCCCNCCn2cccn2)cc1 | 22.8%
Cc1cc(-c2cnn(CCNC(=O)c3snnc3C)c2C2CC2)on1 | -2.4%
CCc1c(O)nc2nc(N3CCCC3)nn2c1C | -5.54%
Cc1cccc(C(C(=O)NCCn2cccc2)N(C)C)c1 (configuration not stated) | -12.1%
Cc1ccc(-c2cc(C(=O)N3CCCC3c3cccnc3)[nH]n2)o1 (configuration not stated) | -4.23%
COc1ccccc1-n1c(O)cc(C)c(C#N)c1=O | -1.09%
Cc1cc(N(C)C)nc(N2CCn3c(nnc3C(C)C)C2)n1 | 13.6%
Cc1nnc2ccc(N3CCC(C(=O)Nc4nccs4)CC3)nn12 | 1.41%
COCC1c2c(cnn2CC2CC2)CCN1Cc1ccsc1 (configuration not stated) | -20.6%

Compound | cytotoxicity at 70.5 h
CN1CCN(S(=O)(=O)c2cccc(S(=O)(=O)C3CCS(=O)(=O)C3)c2)CC1 (configuration not stated) | -11.1%
CCC(C)(O)CNC(=O)Nc1ccc(C)cc1Br (configuration not stated) | -5.82%
COC(=O)NCC(=O)NC(c1ccc(Cl)cc1)C(F)(F)F (configuration not stated) | -8.75%
O=C(c1cc2c(F)cccc2[nH]1)N1CCC(Nc2cccnn2)CC1 | 0.884%
Cc1cc(CCC(N)=O)cc(C2CCCN2Cc2ccnn2C)n1 (configuration not stated) | -6.78%
O[C@@H]1C[C@@](CNCc2cccc(Cl)c2)(COc2cnccn2)C[C@@H]1O | -12%
CCN(C)c1ncnc2c1CCN(S(=O)(=O)c1ccccc1)CC2 | -5.89%
CCN1CCC(NC(=O)CN2CCCC2Cn2nc(C)cc2C)CC1 (configuration not stated) | -9.53%
CC(=O)c1cccc(S(=O)(=O)NCc2cccnc2N(C)C)c1 | -6.06%
COCc1ncc(CN2CCC3(CCC(=O)N(CC(C)O)C3)CC2)cn1 (configuration not stated) | -9.93%
Cc1ccc(N2C[C@@H]3OCCN(Cc4c(C)noc4C)[C@@H]3C2)nn1 | -1.63%
Cn1c(N2CCOCC2)nc2cc(C(=O)N[C@@H]3CC[C@@H](N)C3)ccc21 | -5.03%
CNC(=O)C1CN(C(=O)c2cccnc2)CCN(S(C)(=O)=O)C1 (configuration not stated) | -4.31%
COC1CC2(CCN(Cc3nccn3C)CC2)C1 | -5.43%
CCOC(=O)N1CCC(Nc2cc(CC)nc3c(C)c(C)nn23)CC1 | -4.43%
COCCn1cnc(-c2cc(C(=O)NC(C)C)c3ccccn23)c1 | -6.05%
COc1cccc(-n2nnc(C(=O)N3CCCC3)c2C)c1 | -13.2%
Cc1ccc(CNCc2cccc3cccnc23)c(OC2CCOC2)c1 (configuration not stated) | 12.2%
Cc1cc(C(N)=O)c(N2C[C@@H](C)[C@@](C)(O)C2)nc1C | -7.31%
N#CC1CCCN(c2nc(-c3ccccc3)nc3c2CCNCC3)C1 (configuration not stated) | 6.37%
O=C1CN(C(=O)c2cc(Cl)ccc2F)c2ccccc2N1 | 37.1%
CCn1cc(NC(=O)c2cccc(CN3C[C@@H](C)O[C@@H](C)C3)c2)nn1 | 4.2%
CCc1n[nH]c(=O)c(C(=O)N2CCSCC2)c1CC | -9.39%

Compound | cytotoxicity at 70.5 h
Cn1ncc(-c2cc(-c3cccc(O)c3)nc(N)c2C#N)c1C1CC1 | 37.1%
CCC1(CC)CC(=O)N(CC(O)c2cccc(F)c2)C1=O (configuration not stated) | -3.42%
O=C(NCC1CC1)C1CCC2(CCN(C(=O)c3cccs3)CC2)O1 (configuration not stated) | -15.2%
Cc1ccc(C(=O)N2C[C@H]3CC[C@@H]2CN(S(=O)(=O)N(C)C)C3)c(O)c1 | 14.2%
CN(C)C(=O)CN1CCC2(C1)CN(CC1CCOCC1)C2 | -2.25%
Cc1cccc(N2CCCC3(C2)CN(S(=O)(=O)C2CC2)CCO3)c1 (configuration not stated) | -3.02%
CC(C)NC(=O)[C@H](C)NC(=O)N1CCN(c2ccc(Cl)cc2)CC1 | -15.6%
Cc1cc(-c2cnc(NC3CC3)nc2-c2ccc(C)o2)on1 | -9.8%
COc1ccc(OC)c([C@@H]2N[C@H](c3nccs3)Cc3ccsc32)c1 | -11.6%
CC(C)CN1CCn2nc(CNc3ncnc4[nH]cnc34)cc2C1 | 10.6%
COc1cc(C#N)ccc1OCC(=O)N(C1CC1)C(C)c1ccco1 (configuration not stated) | -9.56%
CN(Cc1cccnc1)Cc1cncc2c1CCN(Cc1ccoc1)C2 | -7.08%
Oc1cc(C2CCCCN2C2CCCC2)nc(-c2cccnc2)n1 (configuration not stated) | -7.77%
Cc1nc(C)n(CC2CCCN2CC(=O)Nc2ccnn2C(C)C)n1 (configuration not stated) | 17%
COCC1CC2(CCN(C(=O)c3ccc(F)cc3C)CC2)CO1 (configuration not stated) | -2.86%
Cc1cc(C)c(OCC(=O)NS(=O)(=O)c2cccnc2)c(C)c1 | -3.3%
C[C@@H]1CN(C(=O)Cc2ccsc2)C[C@]12CCN(CCN(C)C)C2=O | -10.3%
CNc1cc(C)nc(-c2cc(NCCO)nc3[nH]ccc23)n1 | 11.9%
COc1cc(Cl)c(NCc2c(C)noc2C)cc1OC | -7.06%
CN(CC(C)(CO)CO)C(=O)Nc1cc(F)cc(F)c1 | 2.39%
CC(C)N(C)C(=O)c1ccc(CNc2ncc(C#N)cc2Cl)cc1 | 18.7%
C[C@H](NC(=O)N1CCC(Cc2ccccc2)CC1)C(=O)O | -12.5%
O=C1CCC(c2ccccc2)=NN1CN1CCCCCC1 | -14%

Compound | cytotoxicity at 70.5 h
COCCC(=O)N1CCCC2(CCN(c3ccccc3)C2=O)C1 (configuration not stated) | -11%
Cc1cc(-c2nn(C)c(Cl)c2CN2CCN(C)C(C(=O)O)C2)no1 (configuration not stated) | -5.8%
CC(C)Cc1cc(CNC(=O)c2cccc3c2OCC3)no1 | -9.93%
Cc1ncc2c(n1)CN(Cc1nc(-c3cccs3)no1)CC2 | 9.81%
CCOCC1CN(Cc2ccc(F)cc2)Cc2nn(C)cc21 (configuration not stated) | -11.9%
COCC(=O)N1CCCC1(C)c1nc(C)cc(O)n1 (configuration not stated) | -10.5%
CSCC(=O)N1C[C@H]2CC[C@@H]1CN(C1Cc3ccccc3C1)C2 | -9.76%
Cc1nc2c(c(N[C@@H](CO)C(N)=O)n1)Cc1ccccc1OC2 | -9.03%
Cc1nsc(NC(=O)N2CCCCC2CCO)n1 (configuration not stated) | -6.53%
CCc1nc(CN2CCCC(N(C)CCn3cccn3)C2)no1 (configuration not stated) | 57.1%
Cc1nc2sccn2c1C(=O)N1CCc2[nH]cnc2C1 | 10.2%
Cc1nc(C)n(CC2CN(CCCc3ccccc3)CCO2)n1 (configuration not stated) | -4.71%
CCN(C)C(=O)CCC(=O)c1cccs1 | -7.69%
CCOc1ccc(CN2CCC3(CC2)CNC(=O)C3)cn1 | -1.37%
O=C(c1ncccn1)N1CCC[C@]2(C[C@@H](OCC3CC3)CO2)C1 | -16.4%
O=C([C@H]1COC[C@H]2CN(C3CCOCC3)C[C@H]21)N1CCCO1 | -1.26%
COC(=O)N1CCCN(Cn2nc(C)c(Br)c2C)CC1 | 31.2%
N#Cc1cccc(OCCN2CCCC2C(=O)NC2CC2)c1 (configuration not stated) | 4.05%
O=C(NCCc1ccc(F)cc1)NC1CCCc2c1cnn2CCO (configuration not stated) | -6.55%
Cc1ncsc1CCn1ccnc1-c1cc2n(n1)CCCNC2 | 5.55%
O=c1[nH]c2cc(S(=O)(=O)N3CCC(c4ccsc4)CC3)ccc2o1 | -5%
N#CC(NC(=O)CCC1CCC1)c1cnn(-c2ccccc2)c1 (configuration not stated) | 17.3%
CN(C)[C@@H]1CN(Cc2ccccn2)C[C@H]1c1cn(C)c2ccccc12 | 12%

Compound | cytotoxicity at 70.5 h
CCN1C[C@H]2CCN(c3ncccn3)CC[C@H]2S1(=O)=O | 1.89%
Cc1nc(N2CCCCC2)ncc1-c1cc(=O)[nH]c(N2CCCC2)n1 | 2.6%
CCOCc1nc(CSc2ccncc2)n(C)n1 | 6.25%
COCCC(=O)Nc1ccnc(Oc2ccccc2)c1 | 2.24%
CC(=O)N1CCCN(C(C(=O)O)c2ccc(C)cc2C)CC1 (configuration not stated) | -10.9%
O=C(CCCNc1ncccn1)N1CCCC(n2ccnc2)C1 (configuration not stated) | -3.12%
CN(C(=O)Cc1coc(-c2cccs2)n1)C1(C#N)CCC1 | -6.29%
FC1(F)CCN(Cc2cccnc2)CC12CCN(c1ccccc1)C2 (configuration not stated) | -1.56%
Cc1c[nH]c(CN(C)C(=O)c2ccc(CSc3nnc[nH]3)o2)n1 | -1.05%
Cc1nnc(CN2CCCC2c2ccc(Cl)c(Cl)c2)o1 (configuration not stated) | -1.84%
CC(C)Cc1cc(C(=O)NC(C)C)[nH]n1 | -4.46%
c1cncc(CN2CCc3ncnc(NCCc4c[nH]cn4)c3CC2)c1 | -1.46%
CN1CC(c2ccccc2)CC2(CCN(C(=O)c3ccccc3)CC2)C1 (configuration not stated) | -5.15%
COc1ccccc1CN1C(=O)O[C@@H]2CN(c3ccccn3)C[C@@H]21 | 22.7%
CCS(=O)(=O)N1CCC2(CCN(Cc3cccc(OC)c3)CC2)CC1 | -2.06%
Cc1cc(C)c(CNC(=O)NCCC2CCCO2)c(=O)[nH]1 (configuration not stated) | -2.77%
CCN(CC)S(=O)(=O)N1CCC(c2c(C(N)=O)sc3ccccc23)C1 (configuration not stated) | -3.04%
O=C(NC1CCCC1)N1CCCC(c2nccn2Cc2ccncc2)C1 (configuration not stated) | 0.665%
CCn1cc2c(n1)C(COCC1CC1)CN(C(=O)c1ccco1)C2 (configuration not stated) | -10.5%
N#Cc1ccc(SCCC(=O)Nc2ccc(CC(N)=O)cc2)cc1 | 6.57%

Source: ChEMBL document CHEMBL3507680, “University of Dundee, Gates Library screen for HepG2 cell viability”
